Measurements taken from publication PMC10252891 (Cells, 2023).
Values after ≈ are worked out from the molar mass of the structure shown. Values joined by “and” are separate entries in the source; they are usually repeats but may differ in a detail not shown here. Identical values can stand only once.

What was measured:
[1] = tested on: PTZ-induced seizure-like movements in zebrafish larvae; assay: PTZ-induced seizure-like locomotor tracking in zebrafish larvae; type: in vivo, Danio rerio; conditions: for decrease of actinteg values of PTZ-treated larvae: 1 h pre-immersion; for decrease of actinteg values of PTZ-treated larvae / decrease of locomotor activity of PTZ-treated larvae: 20 mM PTZ, vs vehicle-PTZ group
Experimental: For immersion 6 days post-fertilization (dpf) and for all measurements, 7-dpf larvae were used. The zebrafish experiments described here were approved by the Local Ethics Committee in Lublin (license no: 109/2018).
All compounds were dissolved in dimethyl sulfoxide (DMSO) and diluted in an embryo medium to achieve a final DMSO concentration of 1% w/v. Embryo medium prepared with DMSO to a final concentration of 1% w/v served as vehicle control (VHC). PTZ (Sigma-Aldrich, Poznań, Poland) was dissolved at a concentration of 40 mM in the embryo medium. The control anticonvulsant agent used in this study was VPN (Sigma-Aldrich, Poznań, Poland).
(§1) 100 µL of embryo medium or 100 µL of a 40 mM PTZ solution was added to obtain a final concentration of 20 mM of PTZ in each well [30]. Larvae were habituated for 5 min in a dark chamber of an automated tracking device (ZebraBox system; Viewpoint, Lyon, France). Then, the locomotor activity without proconvulsant treatment was measured in the dark. The total locomotor activity was quantified using ZebraLab software (Viewpoint, Lyon, France) and was expressed in “actinteg”’ units, which is the sum of all pixel changes detected during the period defined for the experiment. After the evaluation of preincubated larvae movements, PTZ solution was added, and the locomotor behavior was measured for 30 min for each condition. All tracking experiments were performed at least in triplicate.

zebrafish larvae = assay: Locomotor activity of zebrafish larvae without proconvulsant treatment; type: in vivo, Danio rerio
Experimental: as §1

[2] = tested on: PTZ-induced epileptiform brain discharges in zebrafish larvae; assay: Local field potential (LFP) recordings, power spectral density (PSD) analysis, PTZ-induced seizure model; type: in vivo, Danio rerio; conditions: PTX 20 µM, 18 h immersion, mean PSD over the 1–50 Hz region, 20 mM PTZ
Experimental: Non-invasive local field potential (LFP) was recorded from the optic tectum of zebrafish as described before. Before the recording, the treated larvae were immersed for 15 min in 100 µL of VHC or 20 mM PTZ. After immersion, a larva was immobilized in 2% low melting agarose (Invitogen, Waltham, MA, USA) and the signal electrode (Hilgenberg, Germany) was placed on the surface of the head above the optic tectum. The differential signal between the recording electrode and the reference electrode was amplified 10,000 times by EXT-02F/2 extracellular amplifier (NPI Electronic, Tamm, Germany), band pass filtered at 3–300 Hz and digitized at 2 kHz via a PCI-6251 interface (National Instruments, Austin, Texas, USA) with WinEDR (John Dempster, University of Strathclyde, Glasgow, Scotland). A HumBug noise eliminator (Quest Scientific, Hofheim, Germany) was used to remove 50–60 Hz noise. The recordings and the quantification of the signal from epileptiform brain discharges by Welch’s power spectral density (PSD) analysis were performed as described before.

LAT1 = target: T1, LAT1 (Homo sapiens, UniProt Q01650); assay: [3H]-L-leucine uptake inhibition in MDST8-LAT1 cells; type: cell-based; conditions: LAT1 transfected cells
T1 construct: expressed in transfected cells; host or cells: MDST8-LAT1 cells
T1 sequence (Q01650 whole entry): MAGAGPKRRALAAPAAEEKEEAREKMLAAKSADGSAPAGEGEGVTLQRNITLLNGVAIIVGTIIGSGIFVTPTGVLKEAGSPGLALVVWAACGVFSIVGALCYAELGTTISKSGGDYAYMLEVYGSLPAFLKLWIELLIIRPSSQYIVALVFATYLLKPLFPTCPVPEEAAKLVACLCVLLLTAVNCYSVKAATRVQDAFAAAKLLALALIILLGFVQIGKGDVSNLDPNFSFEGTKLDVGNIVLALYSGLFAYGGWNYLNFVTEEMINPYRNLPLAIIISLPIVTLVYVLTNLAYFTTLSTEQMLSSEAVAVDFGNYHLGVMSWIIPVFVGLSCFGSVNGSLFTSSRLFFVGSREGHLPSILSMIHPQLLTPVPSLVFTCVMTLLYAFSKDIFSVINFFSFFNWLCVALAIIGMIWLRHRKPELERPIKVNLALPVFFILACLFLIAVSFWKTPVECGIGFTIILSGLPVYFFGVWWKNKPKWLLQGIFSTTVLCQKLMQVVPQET
T1 sequence (P08195 102-630 partner): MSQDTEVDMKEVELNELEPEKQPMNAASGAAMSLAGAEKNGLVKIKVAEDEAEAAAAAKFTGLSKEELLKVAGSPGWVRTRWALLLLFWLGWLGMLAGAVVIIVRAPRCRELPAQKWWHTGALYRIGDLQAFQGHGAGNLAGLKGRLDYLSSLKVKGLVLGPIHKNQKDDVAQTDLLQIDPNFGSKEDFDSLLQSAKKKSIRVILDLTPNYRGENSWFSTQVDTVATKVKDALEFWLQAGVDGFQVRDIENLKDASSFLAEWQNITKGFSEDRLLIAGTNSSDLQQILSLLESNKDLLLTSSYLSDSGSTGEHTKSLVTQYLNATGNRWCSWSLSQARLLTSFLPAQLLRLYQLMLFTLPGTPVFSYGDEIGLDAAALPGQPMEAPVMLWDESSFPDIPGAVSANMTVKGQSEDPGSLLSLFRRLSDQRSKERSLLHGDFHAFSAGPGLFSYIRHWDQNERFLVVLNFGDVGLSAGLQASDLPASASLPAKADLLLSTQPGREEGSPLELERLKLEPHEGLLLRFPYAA
Experimental: [3H]-L-Leucine uptake assay
[3H]-L-Leucine uptake assay was performed as previously described [Yan et al., 2021]. Cells were seeded in 96-well plates with opaque bottom (Corning, 353296) at 40-60% confluency, allowing them to attach for 48 hours in a fully supplemented media. Cells were preincubated with different concentrations of […]
Solution (HBSS) containing 125 mM choline-Cl, 25 mM HEPES, 4.8 mM KCl, 1.2 mM MgSO4, 1.2 mM KH2PO4, 1.3 mM CaCl2 and 5.6 mM D-glucose (pH 7.4) and further incubated with the same solution for 7 minutes at 37 °C. [3H]-l-Leucine uptake was assessed in the same solution containing 10 nM “hot” [3H]-L-Leucine (60 Ci/mmol) (Anawa, 0140A-1) + 30 μM “cold” L-leucine. In case of 5 μM JPH203, the same procedure was followed without PTX preincubation. After 3 minutes, the solution was removed, and the cells were washed with ice-cold Na+-free HBSS to terminate the uptake. Cells were lysed with scintillation solvent MicroScint-20 (Perkin-Elmer Life Sciences, 6013621) and the radioactivity was measured with a scintillation counter (TopCount NXT, Perkin-Elmer Life Sciences).
*Yan R, Li Y, Müller J, Zhang Y, Singer S, Xia L, Zhong X, Gertsch J, Altmann KH, Zhou Q. Mechanism of substrate transport and inhibition of the human LAT1-4F2hc amino acid transporter. Cell Discov.

[3] = tested on: zebrafish larvae whole-body metabolites; assay: Amino acid and neurotransmitter quantification (targeted metabolomics) in zebrafish larvae whole-body; type: in vivo, Danio rerio; conditions: PTX 20 μM, 18 h immersion
Experimental: For quantification, six larvae were pooled before homogenization. Three experiments were carried out in independent days.
The samples were prepared as described before. To 80 µL of the homogenate 320 µL of MeOH was added to precipitate proteins at a volume dilution […]. After centrifugation at max speed (20,000 rpm) at 4 °C for 10 min, 50 µL were diluted with 200 µL of 1:1 MeOH:1 mM EDTA in Water (Dil 1:4). Samples were centrifuged at max speed at 4 °C for 10 min, and 50 µL were taken into the LC-MS insert vials, 5 µL of the internal standard mix (ethanolamine_d4, dopamine_d4, methionine_d3, serine_d3, lysine_d4 glycine_d5, and acetylcholine_d4) was added to all vials.
The LC column used was Imtakt Intrada amino acid WAA34, 100 × 3 mm; 3 µm, maintained at 35 °C. The system was operated in positive mode. Mobile phases were: 100 mM Ammonium formate in water (mobile phase A) and 95:5:0.3 acetonitrile:water:formic acid (mobile phase B).

[4] = tested on: PTZ-induced epileptiform brain discharges in zebrafish larvae; design: method as in PMID 34768849; conditions: pimpinellin; cited from earlier work
[5] = LC-MS/MS quantification of whole-body uptake in immersed zebrafish larvae
Experimental: After immersion larvae were plated in 1% BSA for 15 s and washed thoroughly by shaking to remove all compounds from the larvae surface. […] For quantification, six larvae were pooled before homogenization. Three experiments were carried out in independent days.
These were homogenized with the Ultrasonic Processor UP50H (Hielscher): 1 cycle—60% amplitude. The run consisted of two cycles of 15 s with a rest of 50 s in ice for each sample. […] To 100 µL of homogenate 200 µL of the internal standard (IS) Rolipram (Sigma Aldrich, Buchs, Switzerland) (20 ng/mL) for the positive MS experiment, and VPA d-6 (Sigma Aldrich, Buchs, Switzerland) (50 µg/mL) for the negative MS experiment were added. Samples were vortexed for 10 s and then centrifuged at 12,000 rpm for 10 min at 4 °C. After centrifugation, 150 µL of supernatant was transferred into LC-MS vials already containing 120 µL of MilliQ water. Then, 10 µL was injected into the LC-MS/MS system.
A hybrid triple quadrupole 4000 QTRAP mass spectrometer (AB Sciex Concord, ON, Canada) was used with a Shimadzu UFLC (Shimadzu Corporation, Kyoto, Japan) with a cooled auto-sampler. The sample temperature was maintained at 4 °C in the auto-sampler prior to analysis. The LC column was Synergi 4 µm Fusion-RP 80Å C18 50 × 2 mm, Phenomenex, maintained at 45 °C. The system was operated first in positive and after in negative mode with the same elution mobile phases and gradient method. Mobile phases were as follows: water with 0.1% formic acid (solvent A) and methanol with 0.1% formic acid (solvent B). […] The flow rate was 0.80 mL/min. Peaks were integrated, and the analyst software version 1.6.2 (AB Sciex Concord, ON, Canada) was used for quantification. […] Negative mode: Valproic acid m/z 143→143, (IS: Valproic Acid-d6 149→149).

[6] = mammals; cited from earlier work
[7] = treated humans; cited from earlier work
[8] = cited from earlier work

## pteryxin [PTX]
[1]; PTX 10 µM
  decrease of actinteg values of PTZ-treated larvae: 37.6%
[1]; PTX 10 µM, 18 h immersion
  decrease of locomotor activity of PTZ-treated larvae: 61.4%
[1]; PTX 15 µM
  decrease of actinteg values of PTZ-treated larvae: 57.6%
[1]; PTX 15 µM, 18 h immersion
  decrease of locomotor activity of PTZ-treated larvae: 73.3%
[1]; PTX 20 µM
  decrease of actinteg values of PTZ-treated larvae: ~ 70% and 70.6%
[1]; PTX 20 µM, 18 h immersion
  decrease of locomotor activity of PTZ-treated larvae: 78.2%
Zebrafish larvae; PTX 5 µM, 1 h
  average movements without PTZ vs vehicle: increased the average movements
Zebrafish larvae; PTX 20 µM, 1 h
  locomotor activity without PTZ vs vehicle: decreased locomotor activity
Zebrafish larvae; PTX 20 µM, 18 h
  locomotor activity without PTZ vs vehicle: significant inhibition of the locomotor activity
[2]
  decrease in the PSD values: 99.8%
LAT1
  effect on the LAT1-mediated leucine transport: did not show any effect
[3]
  decrease of some AA levels vs control: up to 60%

## COc1c(OC)c2occc2c2oc(=O)ccc12 [Pimpinellin, pimpinellin]
[4]
  decrease of normalized PSD: 81%

## CCCC(CCC)C(=O)O [VPN, sodium valproate]
[1]; VPN 5 mM, 1 h
  efficacy against PTZ-induced seizure-like movements: ~ 80%
[1]; VPN 5 mM, 18 h immersion, p < 0.001
  activity of PTZ-treated larvae vs vehicle-PTZ group: decreased the activity
[5]; VPN/VPA 100 µM, 1 h immersion
  % Absorbed: ~ 6%
[5]; VPN/VPA 100 µM, 1 h immersion, listed as VPN/VPA
  % Absorbed: 6.5%
[5]; VPN/VPA 500 µM, 1 h immersion
  % Absorbed: 2.3%
[5]; VPN/VPA 1 mM, 1 h immersion
  % Absorbed: 3.3%
[5]; VPN/VPA 5 mM, 5 min immersion
  % Absorbed: 0.77%
[5]; VPN/VPA 5 mM, 5 min immersion, listed as VPN/VPA
  % Absorbed: 0.8%
[5]; VPN/VPA 5 mM, 30 min immersion
  % Absorbed: 1.44%
[5]; VPN/VPA 5 mM, 30 min immersion, listed as VPN/VPA
  % Absorbed: 1.4%
[5]; VPN/VPA 5 mM, 1 h immersion
  % Absorbed: 2.52%
[5]; VPN/VPA 5 mM, 1 h immersion, listed as VPN/VPA
  % Absorbed: 2.5%
[5]; VPN/VPA 5 mM, 18 h immersion (metabolism)
  % Absorbed: 0.76% (metabolism)
[5]; VPN/VPA 5 mM, without larvae
  % Absorbed: 100%
  Measured concentration: 734,333 ± 5859 ng/g and 5092 ± 40.6 µM
[5]; zebrafish (Danio rerio) larvae, whole-body larvae homogenate, other: immersion in compound-containing medium, 100 µM, Measured concentration in larvae whole-body, VPN/VPA 100 µM, 1 h immersion
  concentration at 1 h: 941 ng/g and 6.5 µM
[5]; zebrafish (Danio rerio) larvae, whole-body larvae homogenate, other: immersion in compound-containing medium, 500 µM, Measured concentration in larvae whole-body, VPN/VPA 500 µM, 1 h immersion
  concentration at 1 h: 1680 ng/g and 11.6 µM
[5]; zebrafish (Danio rerio) larvae, whole-body larvae homogenate, other: immersion in compound-containing medium, 1 mM, Measured concentration in larvae whole-body, VPN/VPA 1 mM, 1 h immersion
  concentration at 1 h: 4740 ng/g and 32.9 µM
[5]; zebrafish (Danio rerio) larvae, whole-body larvae homogenate, other: immersion in compound-containing medium, 5 mM, Measured concentration in larvae whole-body, VPN/VPA 5 mM, 5 min immersion
  concentration at 5 min: 5600 ng/g and 38.8 µM
[5]; zebrafish (Danio rerio) larvae, whole-body larvae homogenate, other: immersion in compound-containing medium, 5 mM, Measured concentration in larvae whole-body, VPN/VPA 5 mM, 30 min immersion
  concentration at 30 min: 10400 ng/g and 71.9 µM
[5]; zebrafish (Danio rerio) larvae, whole-body larvae homogenate, other: immersion in compound-containing medium, 5 mM, Measured concentration in larvae whole-body, VPN/VPA 5 mM, 1 h immersion
  concentration at 1 h: 18200 ng/g
[5]; zebrafish (Danio rerio) larvae, whole-body larvae homogenate, other: immersion in compound-containing medium, 5 mM, Measured concentration in larvae whole-body, VPN/VPA 5 mM, 18 h immersion
  concentration at 18 h: 5470 ng/g and 38 µM
[5]; zebrafish (Danio rerio) larvae, whole-body larvae homogenate, other: immersion in compound-containing medium, 5 mM, concentration in larvae whole-body, VPN 5 mM, 1 h
  concentration at 1 h: 18200 ± 400 ng/g
[5]; zebrafish (Danio rerio) larvae, whole-body larvae homogenate, other: immersion in compound-containing medium, 10 mM, Measured concentration in larvae whole-body, VPN/VPA 10 mM, 1 h immersion
  concentration at 1 h: 33900 ng/g and 235 µM
[6]
  oral bioavailability: ~ 90%
Zebrafish larvae; VPN 5 mM, 18 h
  locomotor activity without PTZ vs vehicle: significant inhibition of the locomotor activity
[7]
  therapeutic plasma concentration, total: 300 to 700 µM
  therapeutic plasma concentration, unbound: 30 to 100 µM

## CCCC(CCC)C(=O)O [VPA, valproic acid]
[8]
  solubility in aqueous solutions: 1200 µg/mL (≈ 8.32 mM)
